Source: US11117892B2, “Pyrrolo-pyridine derivative compound, method for preparing same, and pharmaceutical composition containing same as active ingredient for prevention or treatment of protein kinase-related diseases” (DAEGU-GYEONGBUK MEDICAL INNOVATION FOUNDATION, priority 2017, dated 2021)

Experiments:
Assay in all cases: scanMAX Kinase assay panel
Assay type in all cases: binding
Conditions in all cases: read-out: % control
CAMK1B = CAMK1B (Homo sapiens (Human), UniProt Q6P2M8)
Procedure, shortened: (§1)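 scanMAX kinase panel screen. Normalisation: (cpd − pos ctrl)/(neg ctrl − pos ctrl) × 100. Neg ctrl is DMSO (100%); pos ctrl gives 0%.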

MKNK2 = MKNK2 (Homo sapiens (Human), UniProt Q9HBH9)
Procedure, shortened: as §1

LYN = LYN (Homo sapiens (Human), UniProt P07948)
Procedure, shortened: as §1

GRK4 = GRK4 (Homo sapiens (Human), UniProt P32298)
Procedure, shortened: as §1

EPHA4 = EPHA4 (Homo sapiens (Human), UniProt P54764)
Procedure, shortened: as §1

DAPK3 = DAPK3 (Homo sapiens (Human), UniProt O43293)
Procedure, shortened: as §1

[1] = molecular target: RSK1(Kin.Dom.1-N-terminal) (Homo sapiens (Human), UniProt Q15418)
Procedure, shortened: as §1

CSNK1G3 = CSNK1G3 (Homo sapiens (Human), UniProt Q9Y6M4)
Procedure, shortened: as §1

TRPM6 = TRPM6 (Homo sapiens (Human), UniProt Q9BX84)
Procedure, shortened: as §1

PKAC-beta = PKAC-beta (Homo sapiens (Human), UniProt P22694)
Procedure, shortened: as §1

ERBB4 = ERBB4 (Homo sapiens (Human), UniProt Q15303)
Procedure, shortened: as §1

MST4 = MST4 (Homo sapiens (Human), UniProt Q9P289)
Procedure, shortened: as §1

MRCKA = MRCKA (Homo sapiens (Human), UniProt Q5VT25)
Procedure, shortened: as §1

FLT3 = FLT3 (Homo sapiens (Human), UniProt P36888)
Procedure, shortened: as §1

DMPK = DMPK (Homo sapiens (Human), UniProt Q09013)
Procedure, shortened: as §1

NIM1 = NIM1 (Homo sapiens (Human), UniProt Q8IY84)
Procedure, shortened: as §1

RIPK2 = RIPK2 (Homo sapiens (Human), UniProt O43353)
Procedure, shortened: as §1

SGK = SGK (Homo sapiens (Human), UniProt O00141)
Procedure, shortened: as §1

RET = RET (Homo sapiens (Human), UniProt P07949)
Procedure, shortened: as §1

YANK1 = YANK1 (Homo sapiens (Human), UniProt Q8WU08)
Procedure, shortened: as §1

TRKC = TRKC (Homo sapiens (Human), UniProt Q16288)
Procedure, shortened: as §1

IKK-beta = IKK-beta (Homo sapiens (Human), UniProt O14920)
Procedure, shortened: as §1

TBK1 = TBK1 (Homo sapiens (Human), UniProt Q9UHD2)
Procedure, shortened: as §1

CDK3 = CDK3 (Homo sapiens (Human), UniProt Q00526)
Procedure, shortened: as §1

PIM1 = PIM1 (Homo sapiens (Human), UniProt P11309)
Procedure, shortened: as §1

DCAMKL2 = DCAMKL2 (Homo sapiens (Human), UniProt Q8N568)
Procedure, shortened: as §1

MYO3B = MYO3B (Homo sapiens (Human), UniProt Q8WXR4)
Procedure, shortened: as §1

KIT(L576P) = KIT(L576P) (Homo sapiens (Human), UniProt P10721, L576P)
Procedure, shortened: as §1

ADCK4 = ADCK4 (Homo sapiens (Human), UniProt Q96D53)
Procedure, shortened: as §1

MET(M1250T) = MET(M1250T) (Homo sapiens (Human), UniProt P08581, M1250T)
Procedure, shortened: as §1

STK36 = STK36 (Homo sapiens (Human), UniProt Q9NRP7)
Procedure, shortened: as §1

MAST1 = MAST1 (Homo sapiens (Human), UniProt Q9Y2H9)
Procedure, shortened: as §1

TSSK1B = TSSK1B (Homo sapiens (Human), UniProt Q9BXA7)
Procedure, shortened: as §1

MEK6 = MEK6 (Homo sapiens (Human), UniProt P52564)
Procedure, shortened: as §1

ZAP70 = ZAP70 (Homo sapiens (Human), UniProt P43403)
Procedure, shortened: as §1

FLT3(R834Q) = FLT3(R834Q) (Homo sapiens (Human), UniProt P36888, R834Q)
Procedure, shortened: as §1

PIKFYVE = PIKFYVE (Homo sapiens (Human), UniProt Q9Y2I7)
Procedure, shortened: as §1

[2] = molecular target: RPS6KA5(Kin.Dom.2-C-terminal) (Homo sapiens (Human), UniProt O75582)
Procedure, shortened: as §1

YES = YES (Homo sapiens (Human), UniProt P07947)
Procedure, shortened: as §1

Chain of CAMK1B (Q6P2M8 whole entry): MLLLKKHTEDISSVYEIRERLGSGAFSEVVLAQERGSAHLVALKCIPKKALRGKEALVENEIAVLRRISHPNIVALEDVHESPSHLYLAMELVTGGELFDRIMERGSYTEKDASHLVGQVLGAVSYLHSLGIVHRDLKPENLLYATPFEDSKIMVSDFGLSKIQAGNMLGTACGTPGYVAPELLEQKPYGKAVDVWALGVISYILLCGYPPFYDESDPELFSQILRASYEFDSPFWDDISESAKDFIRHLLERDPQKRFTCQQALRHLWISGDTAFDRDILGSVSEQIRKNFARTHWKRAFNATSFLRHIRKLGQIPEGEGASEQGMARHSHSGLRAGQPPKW
Chain of ERBB4 (Q15303 26-1308): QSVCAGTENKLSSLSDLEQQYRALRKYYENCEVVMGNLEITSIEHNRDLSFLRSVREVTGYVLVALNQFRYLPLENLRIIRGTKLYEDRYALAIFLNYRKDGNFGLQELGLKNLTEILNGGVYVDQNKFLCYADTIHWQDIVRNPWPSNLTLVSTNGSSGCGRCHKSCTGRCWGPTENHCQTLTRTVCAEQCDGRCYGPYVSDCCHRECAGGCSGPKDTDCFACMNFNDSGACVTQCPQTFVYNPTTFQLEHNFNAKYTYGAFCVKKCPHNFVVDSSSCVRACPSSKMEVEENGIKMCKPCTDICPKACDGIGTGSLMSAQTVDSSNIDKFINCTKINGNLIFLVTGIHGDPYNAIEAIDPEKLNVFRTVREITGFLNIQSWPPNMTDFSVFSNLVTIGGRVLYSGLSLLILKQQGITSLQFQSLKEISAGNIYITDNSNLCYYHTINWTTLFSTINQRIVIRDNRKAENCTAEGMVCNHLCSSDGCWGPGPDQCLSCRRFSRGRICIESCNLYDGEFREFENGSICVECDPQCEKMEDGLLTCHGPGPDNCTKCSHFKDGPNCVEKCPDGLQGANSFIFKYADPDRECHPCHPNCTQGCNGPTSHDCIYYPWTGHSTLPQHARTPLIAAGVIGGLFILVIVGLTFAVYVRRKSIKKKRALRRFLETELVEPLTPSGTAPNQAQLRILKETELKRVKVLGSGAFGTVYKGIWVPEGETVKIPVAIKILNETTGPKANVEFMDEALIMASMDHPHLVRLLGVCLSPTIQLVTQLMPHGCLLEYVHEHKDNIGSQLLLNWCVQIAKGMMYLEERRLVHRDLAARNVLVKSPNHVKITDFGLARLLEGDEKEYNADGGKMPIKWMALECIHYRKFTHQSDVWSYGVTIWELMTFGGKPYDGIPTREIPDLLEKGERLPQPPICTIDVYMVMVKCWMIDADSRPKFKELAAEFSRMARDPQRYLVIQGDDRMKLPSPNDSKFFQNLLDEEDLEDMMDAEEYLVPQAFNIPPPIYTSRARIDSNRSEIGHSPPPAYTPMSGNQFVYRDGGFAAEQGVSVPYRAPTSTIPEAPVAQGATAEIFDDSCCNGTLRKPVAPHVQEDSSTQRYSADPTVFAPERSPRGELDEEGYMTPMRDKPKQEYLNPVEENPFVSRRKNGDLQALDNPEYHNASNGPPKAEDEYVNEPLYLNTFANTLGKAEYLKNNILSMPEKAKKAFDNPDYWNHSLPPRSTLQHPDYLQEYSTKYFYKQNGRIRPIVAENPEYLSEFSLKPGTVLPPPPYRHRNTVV
Chain of DAPK3 (O43293 whole entry): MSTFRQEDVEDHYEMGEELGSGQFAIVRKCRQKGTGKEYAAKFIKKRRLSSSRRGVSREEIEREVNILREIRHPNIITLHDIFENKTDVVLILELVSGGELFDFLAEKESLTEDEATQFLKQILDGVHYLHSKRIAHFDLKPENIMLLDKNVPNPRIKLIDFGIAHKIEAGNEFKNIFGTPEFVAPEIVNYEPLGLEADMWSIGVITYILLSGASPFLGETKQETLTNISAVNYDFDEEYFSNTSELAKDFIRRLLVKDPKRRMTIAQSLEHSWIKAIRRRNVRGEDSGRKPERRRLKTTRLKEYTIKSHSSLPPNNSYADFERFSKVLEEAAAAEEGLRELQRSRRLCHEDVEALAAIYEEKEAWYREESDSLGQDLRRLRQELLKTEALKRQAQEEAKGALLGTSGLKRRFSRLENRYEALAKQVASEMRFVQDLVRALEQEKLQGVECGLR
Chain of MEK6 (P52564 whole entry): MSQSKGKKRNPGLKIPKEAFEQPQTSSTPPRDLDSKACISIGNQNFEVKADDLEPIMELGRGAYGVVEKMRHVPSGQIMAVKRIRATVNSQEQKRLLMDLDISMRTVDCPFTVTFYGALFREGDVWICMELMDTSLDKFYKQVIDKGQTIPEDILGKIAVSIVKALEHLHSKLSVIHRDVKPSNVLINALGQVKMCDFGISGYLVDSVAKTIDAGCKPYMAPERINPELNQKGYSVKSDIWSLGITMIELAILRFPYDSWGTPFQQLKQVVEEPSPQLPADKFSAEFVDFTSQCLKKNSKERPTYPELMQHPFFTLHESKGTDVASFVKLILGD
Chain of CDK3 (Q00526 whole entry): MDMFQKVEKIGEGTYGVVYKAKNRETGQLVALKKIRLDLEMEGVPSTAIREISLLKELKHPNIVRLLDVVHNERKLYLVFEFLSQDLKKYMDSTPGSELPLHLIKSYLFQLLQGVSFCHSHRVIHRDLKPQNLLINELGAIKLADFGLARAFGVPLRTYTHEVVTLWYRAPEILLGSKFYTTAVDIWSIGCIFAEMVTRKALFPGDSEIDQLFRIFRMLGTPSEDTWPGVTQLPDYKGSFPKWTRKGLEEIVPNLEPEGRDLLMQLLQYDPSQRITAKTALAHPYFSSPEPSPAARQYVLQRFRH
Chain of RSK1(Kin.Dom.1-N-terminal) (Q15418 62-321): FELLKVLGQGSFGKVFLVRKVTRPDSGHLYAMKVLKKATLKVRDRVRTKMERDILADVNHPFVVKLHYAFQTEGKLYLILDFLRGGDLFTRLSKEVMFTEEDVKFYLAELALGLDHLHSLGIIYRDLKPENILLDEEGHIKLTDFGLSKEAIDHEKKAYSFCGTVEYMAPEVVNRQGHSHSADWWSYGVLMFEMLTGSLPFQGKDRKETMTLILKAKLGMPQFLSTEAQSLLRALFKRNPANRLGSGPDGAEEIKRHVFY
Chain of ADCK4 (Q96D53 whole entry): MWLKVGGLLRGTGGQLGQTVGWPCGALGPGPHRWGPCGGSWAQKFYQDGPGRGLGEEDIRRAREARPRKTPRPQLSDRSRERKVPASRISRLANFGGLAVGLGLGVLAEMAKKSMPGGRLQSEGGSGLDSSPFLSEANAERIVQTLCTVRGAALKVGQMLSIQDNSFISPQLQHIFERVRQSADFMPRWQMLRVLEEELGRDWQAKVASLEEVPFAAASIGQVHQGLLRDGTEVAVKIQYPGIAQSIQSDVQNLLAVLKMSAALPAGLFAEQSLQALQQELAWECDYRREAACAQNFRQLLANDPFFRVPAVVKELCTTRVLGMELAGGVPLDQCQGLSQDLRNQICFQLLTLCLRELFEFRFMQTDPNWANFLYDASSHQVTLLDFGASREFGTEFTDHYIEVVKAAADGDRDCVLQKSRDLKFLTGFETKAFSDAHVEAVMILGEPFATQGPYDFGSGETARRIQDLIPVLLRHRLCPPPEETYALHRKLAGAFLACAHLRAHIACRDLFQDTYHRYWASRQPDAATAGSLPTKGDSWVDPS
Chain of RIPK2 (O43353 whole entry): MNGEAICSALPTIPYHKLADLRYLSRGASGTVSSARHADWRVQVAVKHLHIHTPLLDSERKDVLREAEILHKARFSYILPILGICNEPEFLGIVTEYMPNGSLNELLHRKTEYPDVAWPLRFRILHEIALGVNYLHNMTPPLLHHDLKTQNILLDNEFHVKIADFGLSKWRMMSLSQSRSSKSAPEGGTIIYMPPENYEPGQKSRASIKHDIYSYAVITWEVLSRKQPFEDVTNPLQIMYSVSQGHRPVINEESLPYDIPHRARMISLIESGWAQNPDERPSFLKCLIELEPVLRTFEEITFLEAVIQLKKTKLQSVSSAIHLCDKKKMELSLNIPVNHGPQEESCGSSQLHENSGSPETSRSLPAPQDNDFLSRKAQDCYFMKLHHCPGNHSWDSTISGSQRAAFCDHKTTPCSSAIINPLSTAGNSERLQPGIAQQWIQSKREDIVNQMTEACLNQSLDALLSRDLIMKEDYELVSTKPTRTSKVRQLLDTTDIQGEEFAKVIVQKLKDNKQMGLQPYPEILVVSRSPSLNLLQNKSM
Chain of SGK (O00141 whole entry): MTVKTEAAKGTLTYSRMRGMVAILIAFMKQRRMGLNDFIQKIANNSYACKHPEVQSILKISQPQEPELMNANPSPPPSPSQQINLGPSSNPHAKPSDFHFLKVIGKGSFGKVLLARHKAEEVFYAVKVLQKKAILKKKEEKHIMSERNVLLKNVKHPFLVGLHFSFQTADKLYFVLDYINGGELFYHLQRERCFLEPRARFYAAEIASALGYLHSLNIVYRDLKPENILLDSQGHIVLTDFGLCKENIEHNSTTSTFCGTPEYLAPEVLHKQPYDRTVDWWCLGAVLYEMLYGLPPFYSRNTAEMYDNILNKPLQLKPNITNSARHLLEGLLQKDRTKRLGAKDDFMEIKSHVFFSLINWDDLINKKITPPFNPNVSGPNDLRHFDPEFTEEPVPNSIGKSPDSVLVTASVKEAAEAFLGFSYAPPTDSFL
Chain of MST4 (Q9P289 whole entry): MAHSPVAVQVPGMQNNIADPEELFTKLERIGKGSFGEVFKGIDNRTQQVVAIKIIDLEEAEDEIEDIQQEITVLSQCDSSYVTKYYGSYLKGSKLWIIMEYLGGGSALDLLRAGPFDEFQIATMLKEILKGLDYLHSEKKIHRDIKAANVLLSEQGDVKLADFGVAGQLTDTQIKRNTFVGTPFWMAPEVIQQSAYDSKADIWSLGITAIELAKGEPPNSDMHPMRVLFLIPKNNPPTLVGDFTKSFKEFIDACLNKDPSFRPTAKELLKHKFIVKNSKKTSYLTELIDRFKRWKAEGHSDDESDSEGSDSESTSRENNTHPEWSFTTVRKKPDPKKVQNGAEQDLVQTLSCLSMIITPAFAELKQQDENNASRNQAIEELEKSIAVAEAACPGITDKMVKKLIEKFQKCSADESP

SMILES	remaining binding at 1 µM (CAMK1B) [%]	remaining binding at 1 µM (MKNK2) [%]	remaining binding at 1 µM (LYN) [%]	remaining binding at 1 µM (GRK4) [%]	remaining binding at 1 µM (EPHA4) [%]	remaining binding at 1 µM (DAPK3) [%]	remaining binding at 1 µM [1] [%]	remaining binding at 1 µM (CSNK1G3) [%]	remaining binding at 1 µM (TRPM6) [%]	remaining binding at 1 µM (PKAC-beta) [%]	remaining binding at 1 µM (ERBB4) [%]	remaining binding at 1 µM (MST4) [%]	remaining binding at 1 µM (MRCKA) [%]	remaining binding at 1 µM (FLT3) [%]	remaining binding at 1 µM (DMPK) [%]	remaining binding at 1 µM (NIM1) [%]	remaining binding at 1 µM (RIPK2) [%]	remaining binding at 1 µM (SGK) [%]	remaining binding at 1 µM (RET) [%]	remaining binding at 1 µM (YANK1) [%]	further results
CCNc1cc(Nc2ccc(C(=O)N3CCC(N4CCOCC4)CC3)cc2OC)nc2[nH]cc(C#N)c12 [Example 18, 4-(ethylamino)-6-((2-methoxy-4-(4-morpholinopiperidine-1-carbonyl)phenyl)amino)-1H-pyrrolo[2,3-b]pyridine-3-carbonitrile]	34	60	90	100	98	14	73	7.1	87	66	85	81	100	83	81	81	86	64	100	100	remaining binding at 1 µM (TRKC): 93%; remaining binding at 1 µM (IKK-beta): 77%; remaining binding at 1 µM (TBK1): 76%; remaining binding at 1 µM (CDK3): 97%; remaining binding at 1 µM (PIM1): 59%; remaining binding at 1 µM (DCAMKL2): 77%; remaining binding at 1 µM (MYO3B): 73%; remaining binding at 1 µM (KIT(L576P)): 77%; remaining binding at 1 µM (ADCK4): 100%; remaining binding at 1 µM (MET(M1250T)): 100%; remaining binding at 1 µM (STK36): 98%; remaining binding at 1 µM (MAST1): 93%; remaining binding at 1 µM (TSSK1B): 34%; remaining binding at 1 µM (MEK6): 53%; remaining binding at 1 µM (ZAP70): 38%; remaining binding at 1 µM (FLT3(R834Q)): 92%; remaining binding at 1 µM (PIKFYVE): 99%; remaining binding at 1 µM [2]: 10%; remaining binding at 1 µM (YES): 90%
CCNc1cc(Nc2ccc(C(=O)N3CCC(N4CCOCC4)CC3)cc2OC)nc2[nH]cc(C(F)(F)F)c12 [Example 57, (4-((4-(ethylamino)-3-(trifluoromethyl)-1H-pyrrolo[2,3-b]pyridin-6-yl)amino)-3-methoxyphenyl) (4-morpholinopiperidin-1-yl)methanone]	81	95	100	100	94	86	76	89	97	92	82	100	95	100	100	100	94	100	100	100	remaining binding at 1 µM (TRKC): 100%; remaining binding at 1 µM (IKK-beta): 100%; remaining binding at 1 µM (TBK1): 85%; remaining binding at 1 µM (CDK3): 94%; remaining binding at 1 µM (PIM1): 94%; remaining binding at 1 µM (DCAMKL2): 79%; remaining binding at 1 µM (MYO3B): 83%; remaining binding at 1 µM (KIT(L576P)): 100%; remaining binding at 1 µM (ADCK4): 75%; remaining binding at 1 µM (MET(M1250T)): 100%; remaining binding at 1 µM (STK36): 98%; remaining binding at 1 µM (MAST1): 66%; remaining binding at 1 µM (TSSK1B): 53%; remaining binding at 1 µM (MEK6): 72%; remaining binding at 1 µM (ZAP70): 100%; remaining binding at 1 µM (FLT3(R834Q)): 100%; remaining binding at 1 µM (PIKFYVE): 77%; remaining binding at 1 µM [2]: 83%; remaining binding at 1 µM (YES): 83%
